In the Deep4Chem optical property database:

Experiment: solvent given as SMILES

Nc1ccc2[nH]ncc2c1
fluorescence lifetime (in C1CCCCC1): 4.9 ns
fluorescence lifetime (in CC#N): 4.7 ns
fluorescence lifetime (in CO): 6.4 ns
fluorescence lifetime (in O): 12.5 ns

O=S(=O)(c1ccc(N2c3ccccc3[Si](c3ccccc3)(c3ccccc3)c3ccccc32)cc1)c1ccc(N2c3ccccc3[Si](c3ccccc3)(c3ccccc3)c3ccccc32)cc1
fluorescence lifetime (in c1cc(-n2c3ccccc3c3ccccc32)cc(-n2c3ccccc3c3ccccc32)c1): 4 ns

c1ccc(-c2cc(-c3ccc4ccc5cccc6ccc3c4c56)ccn2)nc1
fluorescence lifetime (in C1CCOC1): 6.5 ns
fluorescence lifetime (in CC#N): 4.7 ns
fluorescence lifetime (in CCC#N): 4.6 ns
fluorescence lifetime (in CCCC#N): 5.5 ns
fluorescence lifetime (in CCCCCC): 8.1 ns
fluorescence lifetime (in CCCO): 3.5 ns
fluorescence lifetime (in CCO): 3.5 ns
fluorescence lifetime (in CO): 3.1 ns
fluorescence lifetime (in Cc1ccccc1): 6 ns

N#Cc1ncc(-c2c3ccccc3c(-c3cnc(C#N)nc3)c3ccccc23)cn1
fluorescence lifetime (in CCO): 1.8 ns
fluorescence lifetime (in ClCCl): 5.8 ns

Fc1nc(F)c(F)c(/C=C2/C(c3c(F)c(F)nc(F)c3F)=Cc3ccccc32)c1F
fluorescence lifetime (in CC#N): 0.3 ns

c1ccc(C2=C(c3ccccc3)[Si](c3ccccc3)(c3ccccc3)c3ccccc32)cc1
fluorescence lifetime (in C1CCOC1): 1.98 ns

Cc1ccc(-c2ccc(/C=C/c3ccc([N+](=O)[O-])cc3)cn2)nc1
fluorescence lifetime (in CC#N): 0.31 ns

Nc1ccccc1
fluorescence lifetime (in C1CCCCC1): 3.4 ns

C[Si]1(C)c2cc(-c3ccccc3)ccc2C=Cc2ccc(-c3ccccc3)cc21
fluorescence lifetime (in ClCCl): 1.6 ns

CCOC(=O)C1CC(c2c(C#N)c(C)nn2-c2ccccc2)=CN1c1ccc(Br)cc1 (configuration not stated)
fluorescence lifetime (in C1CCOC1): 5.02 ns
fluorescence lifetime (in C1COCCO1): 5.29 ns
fluorescence lifetime (in CC#N): 4.91 ns
fluorescence lifetime (in CCCCCCC): 4.54 ns
fluorescence lifetime (in CCO): 3.66 ns
fluorescence lifetime (in O): 4.2 ns
fluorescence lifetime (in OCC(O)CO): 2.17 ns
fluorescence lifetime (in OCCO): 2.8 ns

COc1cc(C(=O)c2c(C)c3ccc4cccc5c6cccc7ccc2c(c76)c3c45)cc(OC)c1OC
fluorescence lifetime (in ClCCl): 1.35 ns

Cn1cccc1-c1cc(C#N)ccc1C#N
fluorescence lifetime (in C1CCOC1): 13.1 ns
fluorescence lifetime (in CC#N): 2.8 ns
fluorescence lifetime (in CCCCCC): 7.5 ns
fluorescence lifetime (in CCCCOCCCC): 11.4 ns
fluorescence lifetime (in CCOCC): 12.6 ns

O=C1/C(=C2\Sc3ccc(S(=O)(=O)Nc4ccccc4)cc3C2=O)Sc2ccc(S(=O)(=O)Nc3ccccc3)cc21
fluorescence lifetime (in C1COCCO1): 6.06 ns
fluorescence lifetime (in CO): 0.13 ns
fluorescence lifetime (in CS(C)=O): 0.12 ns

COc1ccc(C2=CC(c3ccc(OC)cc3)=[O+][B-](C(C)=O)(C(C)=O)O2)cc1
fluorescence lifetime (in CC#N): 2.1 ns
fluorescence lifetime (in ClC(Cl)(Cl)Cl): 2.1 ns

CCCCn1c(-c2ccc(-c3nnc(-c4ccc5ccccc5c4)o3)cc2)nc2c3ccccc3c3ccccc3c21
fluorescence lifetime (in ClCCl): 1.78 ns

O=C(c1ccc(-n2c3ccccc3c3ccccc32)cc1)c1ccc(-n2c3ccccc3c3ccccc32)cc1
fluorescence lifetime (in O=P(c1ccccc1)(c1ccccc1)c1ccccc1Oc1ccccc1P(=O)(c1ccccc1)c1ccccc1): 59 ns

C[Si](C)(C)c1cccc2ccccc12
fluorescence lifetime (in C1CCCCC1): 64 ns

COc1ccc(/C2=C3N=C(C(c4ccccc4)=C/3c3ccccc3)/C(c3ccc(OC)cc3)=c3\[nH]/c(c(-c4ccccc4)c3-c3ccccc3)=C(/c3ccc(OC)cc3)C3=N/C(=C(/c4ccc(OC)cc4)c4[nH]c2c(-c2ccccc2)c4-c2ccccc2)C(c2ccccc2)=C3c2ccccc2)cc1
fluorescence lifetime (in ClCCl): 0.921 ns

F[B-]1(F)n2c(c3cccc4cccc2c43)=Nc2ccc3ccccc3[n+]21
fluorescence lifetime (in ClCCl): 6.1 ns

CC(=O)OC[C@H]1O[C@@H](OCC#Cc2ccc(C3=C4C(C)=CC(/C=C/c5ccc([N+](C)(C)C)cc5)=[N+]4[B-](F)(F)n4c(/C=C/c5ccc([N+](C)(C)C)cc5)cc(C)c43)cc2)[C@H](OC(C)=O)C(OC(C)=O)[C@@H]1OC(C)=O (some centres not stated)
fluorescence lifetime (in CC#N): 5.4 ns

CCOc1cccc2c1O[B-](F)(F)[n+]1c3c(c4c(c1-2)-c1ccccc1CC4)-c1ccccc1CC3
fluorescence lifetime (in ClCCl): 1.73 ns
